Laboratory results from PubChem BioAssay AID206 (DTP/NCI, 2004).
Where “and” joins values, the source holds several entries; their conditions need not be identical. Equal values may be shown once. Records with an inconclusive call do not appear.

Tested on: nude mice, HT29 intrarenal xenograft, tumor weight T/C
Assay: NCI In Vivo Anticancer Drug Screen. Data for tumor model HT29;CX-1 Human Adenocarcinoma (MER+) (intrarenal inoculation) in NU/NU Swiss (nude) mice
Settings: endpoint: mean tumor weight change, higher = larger tumour
Outline: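 Tumor-bearing mice received test compound or vehicle, and tumor size or survival was recorded. Values are the treated-group measurement divided by the vehicle-treated control measurement.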

[1] = dose: 75.0 mg/kg/injection, schedule: Q04DX004 (sc), vehicle: saline with Tween-80
[2] = dose: 300.0 mg/kg/injection, schedule: Q04DX004 (sc), vehicle: saline with Tween-80
[3] = dose: 150.0 mg/kg/injection, schedule: Q04DX004 (sc), vehicle: saline with Tween-80
[4] = dose: 225.0 mg/kg/injection, schedule: Q04DX004 (sc), vehicle: saline with Tween-80
[5] = dose: 450.0 mg/kg/injection, schedule: Q04DX004 (sc), vehicle: saline with Tween-80

In the case of `O=c1oc2c(O)c(O)cc3c(=O)oc4c(O)c(O)cc1c4c23`, the T/C (dose: 150.0 mg/kg/injection, schedule: Q04DX004 (sc), vehicle: Klucel (hydroxypropylcellulose) (HPC)) is reported as 93 % of control, the T/C (dose: 600.0 mg/kg/injection, schedule: Q04DX004 (sc), vehicle: Klucel (hydroxypropylcellulose) (HPC)) is reported as 161 % of control and the T/C (dose: 1200.0 mg/kg/injection, schedule: Q04DX004 (sc), vehicle: Klucel (hydroxypropylcellulose) (HPC)) is reported as 201 % of control.
With `Cc1cn(C2CC(O)C(CO)O2)c(=O)[nH]c1=O` (centres undefined) the T/C (dose: 400.0 mg/kg/injection, schedule: Q04DX004 (sc), vehicle: saline) was 113 % of control, the T/C (dose: 800.0 mg/kg/injection, schedule: Q04DX004 (sc), vehicle: saline) was 94 % of control and the T/C (dose: 1600.0 mg/kg/injection, schedule: Q04DX004 (sc), vehicle: saline) was 102 % of control. The T/C (dose: 3200.0 mg/kg/injection, schedule: Q04DX004 (sc), vehicle: saline) was 81 % of control.
`c1cc[c]([Sn][c]2ccccc2)cc1` was tested, and the T/C (dose: 80.0 mg/kg/injection, schedule: Q01DX010 (sc), vehicle: saline) was 88 % of control, the T/C (dose: 160.0 mg/kg/injection, schedule: Q01DX010 (sc), vehicle: saline) was 113 % of control and the T/C (dose: 320.0 mg/kg/injection, schedule: Q01DX010 (sc), vehicle: saline) was 122 % of control.
With `OC1(CSc2ccccc2)CCCCC1` the T/C (dose: 100.0 mg/kg/injection, schedule: Q04DX004 (sc), vehicle: saline with Tween-80) was 113 % of control.
With `C=CC(=O)N1CN(C(=O)C=C)CN(C(=O)C=C)C1` the T/C (dose: 6.25 mg/kg/injection, schedule: Q01DX010 (sc), vehicle: saline with Tween-80) was 183 % of control and the T/C (dose: 12.5 mg/kg/injection, schedule: Q01DX010 (sc), vehicle: saline with Tween-80) was 45 % of control.
With `C[Si](C)(C)n1nnn(-c2ccccc2)c1=O` the T/C (dose: 37.5 mg/kg/injection, schedule: Q04DX004 (sc), vehicle: saline with Tween-80) was 116 % of control, the T/C [1] was 120 % of control and the T/C [2] was 116 % of control.
`CCNC(=O)OCc1c(COC(=O)NCC)c(-c2ccc(Cl)c(Cl)c2)n2c1CCC2` was tested, and the T/C [1] was 5 % of control and 19 % of control and the T/C [3] was 66 % of control.
For `COc1cc([C@@H]2c3cc4c(cc3[C@@H](OC3OC5COC(C)OC5C(O)C3O)[C@H]3COC(=O)[C@H]23)OCO4)cc(OC)c1O` (some centres undefined), the T/C (dose: 4.0 mg/kg/injection, schedule: Q01DX010 (sc), vehicle: saline) was 71 % of control and the T/C (dose: 32.0 mg/kg/injection, schedule: Q01DX010 (sc), vehicle: saline) was 62 % of control.
In the case of `CC(=O)Nc1cscc1NC(C)=O`, the T/C [1] is reported as 84 % of control, the T/C [3] is reported as 81 % of control and the T/C [2] is reported as 155 % of control. The T/C (dose: 600.0 mg/kg/injection, schedule: Q04DX004 (sc), vehicle: saline with Tween-80) was 155 % of control, the T/C (dose: 1200.0 mg/kg/injection, schedule: Q04DX004 (sc), vehicle: saline with Tween-80) was 82 % of control and the T/C (dose: 2400.0 mg/kg/injection, schedule: Q04DX004 (sc), vehicle: saline with Tween-80) was 118 % of control.
With `CC(C)[NH-].CC(C)[NH-].[Cl][Pt+2][Cl]` the T/C (dose: 37.5 mg/kg/injection, schedule: Q04DX004 (sc), vehicle: dextrose) was 58 % of control, the T/C (dose: 75.0 mg/kg/injection, schedule: Q04DX004 (sc), vehicle: dextrose) was 43 % of control and the T/C (dose: 150.0 mg/kg/injection, schedule: Q04DX004 (sc), vehicle: dextrose) was 21 % of control.
In the case of `C[CH2][Pb]([CH2]C)([CH2]C)[O]C(=O)COc1ccccc1`, the T/C (dose: 4.5 mg/kg/injection, schedule: Q04DX004 (sc), vehicle: saline with Tween-80) is reported as 100 % of control, the T/C (dose: 9.0 mg/kg/injection, schedule: Q04DX004 (sc), vehicle: saline with Tween-80) is reported as 114 % of control and the T/C (dose: 18.0 mg/kg/injection, schedule: Q04DX004 (sc), vehicle: saline with Tween-80) is reported as 65 % of control.
`CC(=O)Nc1ccc(S(=O)(=O)CO)cc1` was tested, and the T/C [4] was 73 % of control and the T/C [5] was 57 % of control.
In the case of `CCOC(=O)c1cn(C)c2c1C(O)=C(C(=O)OC)CC(=O)N2`, the T/C [4] is reported as 95 % of control, the T/C [5] is reported as 52 % of control and the T/C (dose: 1800.0 mg/kg/injection, schedule: Q04DX004 (sc), vehicle: saline with Tween-80) is reported as 62 % of control.
With `[N-]=[N+]=C1N=CN=C1c1ncn[nH]1` the T/C (dose: 12.5 mg/kg/injection, schedule: Q01DX010 (sc), vehicle: Klucel (hydroxypropylcellulose) (HPC)) was 73 % of control and the T/C (dose: 25.0 mg/kg/injection, schedule: Q01DX010 (sc), vehicle: Klucel (hydroxypropylcellulose) (HPC)) was 41 % of control.
